The numbers were not newly measured in patent US9126163B2, “Nanoemulsions and processes for their preparation, and their use as formulations of plant protection agents and/or pesticides and/or cosmetic preparations” (Evonik Degussa GmbH, priority 2008, dated 2015), which cites them from elsewhere.

Values after ≈ are worked out from the molar mass of the structure shown. A value given as a limit tells only on which side of the number the result lay.

Consider `Cc1c(COC(=O)[C@@H]2[C@H](/C=C(\Cl)C(F)(F)F)C2(C)C)cccc1-c1ccccc1` (racemic) [bifenthrin], for which the solubility in water was < 0.001 mg/L.
For `Fc1ccc([C@]2(Cn3cncn3)O[C@H]2c2ccccc2Cl)cc1` (racemic) [epoxyconazole], the solubility in water was 6.63*10^−4 g/100 ml.
In the case of `CO/C=C(/C(=O)OC)c1ccccc1Oc1cc(Oc2ccccc2C#N)ncn1` [azoxystrobin], the solubility in water was 6 mg/L (≈ 14.9 µM).
Turning to `COC(=O)Nc1nc2ccccc2[nH]1` [carbendazim], the solubility in water is 29 mg/L (≈ 152 µM).
With `O=C(Nc1ccc([N+](=O)[O-])cc1Cl)c1cc(Cl)ccc1O` [niclosamide], the solubility in water is 100 mg/L (≈ 306 µM).
For the compound `COc1cc(OC)nc(NC(=O)NS(=O)(=O)c2ncccc2C(=O)N(C)C)n1` [nicosulfuron], the solubility in water is 70 mg/L (≈ 171 µM).
Consider `CC1(C)C(C=C(Cl)Cl)C1C(=O)OCc1cccc(Oc2ccccc2)c1` (stereo not shown) [permethrin], for which the solubility in water is 0.006 mg/L (≈ 0.0153 µM).
As for `CCCCCCCCCCCCCN1CC(C)OC(C)C1` (stereo not shown) [tridemorph], the solubility in water is 1.1 mg/L (≈ 3.7 µM).
Consider abamectin, for which the solubility in water was 0.007 to 0.01 mg/L.
As to mancozeb, the solubility in water was 6.2 ppm.
